Data published in PubChem BioAssay AID248 (DTP/NCI, 2004).
Values joined by “and” are separate entries in the source; they are usually repeats but may differ in a detail not shown here. Equal entries are not always repeated. Toxic doses and inconclusive results are not listed. No stated cut-off is given here; in the data, active means T/C of 150% or more; inactive means T/C below 125%.

Test system: L1210 leukemia ip in BDF1 mice, survival T/C
Assay: NCI In Vivo Anticancer Drug Screen. Data for tumor model L1210 Leukemia (intraperitoneal) in B6D2F1 (BDF1) mice
Details: endpoint: mean survival time, higher = longer survival
Method in brief: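 Tumor cells were implanted, animals were treated, and survival was followed. The result divides the treated measurement by the vehicle-control measurement.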

[1] = dose: 100.0 mg/kg/injection, schedule: Q01DX009 (ip), vehicle: saline with Tween-80
[2] = dose: 100.0 mg/kg/injection, schedule: Q04DX003 (ip), vehicle: saline with Tween-80
[3] = dose: 200.0 mg/kg/injection, schedule: Q01DX009 (ip), vehicle: saline with Tween-80
[4] = dose: 200.0 mg/kg/injection, schedule: Q04DX003 (ip), vehicle: saline with Tween-80
[5] = dose: 400.0 mg/kg/injection, schedule: Q01DX009 (ip), vehicle: saline with Tween-80
[6] = dose: 400.0 mg/kg/injection, schedule: Q04DX003 (ip), vehicle: saline with Tween-80
[7] = dose: 100.0 mg/kg/injection, schedule: Q01DX001 (ip), vehicle: Klucel (hydroxypropylcellulose) (HPC)
[8] = dose: 200.0 mg/kg/injection, schedule: Q01DX001 (ip), vehicle: Klucel (hydroxypropylcellulose) (HPC)
[9] = dose: 400.0 mg/kg/injection, schedule: Q01DX001 (ip), vehicle: Klucel (hydroxypropylcellulose) (HPC)
[10] = dose: 100.0 mg/kg/injection, schedule: Q04DX002 (ip), vehicle: saline with Tween-80
[11] = dose: 200.0 mg/kg/injection, schedule: Q04DX002 (ip), vehicle: saline with Tween-80
[12] = dose: 400.0 mg/kg/injection, schedule: Q04DX002 (ip), vehicle: saline with Tween-80
[13] = dose: 100.0 mg/kg/injection, schedule: Q04DX003 (ip), vehicle: Klucel (hydroxypropylcellulose) (HPC)
[14] = dose: 200.0 mg/kg/injection, schedule: Q04DX003 (ip), vehicle: Klucel (hydroxypropylcellulose) (HPC)
[15] = dose: 400.0 mg/kg/injection, schedule: Q04DX003 (ip), vehicle: Klucel (hydroxypropylcellulose) (HPC)
[16] = dose: 100.0 mg/kg/injection, schedule: Q01DX009 (ip), vehicle: Klucel (hydroxypropylcellulose) (HPC)
[17] = dose: 200.0 mg/kg/injection, schedule: Q01DX009 (ip), vehicle: Klucel (hydroxypropylcellulose) (HPC)
[18] = dose: 400.0 mg/kg/injection, schedule: Q01DX009 (ip), vehicle: Klucel (hydroxypropylcellulose) (HPC)

Measured: T/C

Fc1ccc(C=Nc2cccc(Cl)c2)cc1
inactive: [1] 95 % of control | [2] 103 % of control | [3] 97 % of control | [4] 93 % of control | [5] 100 % of control | [6] 98 % of control

CN1CN(c2ccccc2)C2(CCN(c3nc4ccccc4s3)CC2)C1=O
inactive: [7] 91 % of control | [8] 94 % of control | [9] 96 % of control

CCN(CC)C1=C(Cl)C(=O)c2ccccc2C1=O
inactive: [1] 93 % of control | [3] 93 % of control

N#CCCC(C#N)(CCC#N)c1ccc([N+](=O)[O-])cc1
inactive: [1] 102 % of control | [2] 98 % of control | [3] 107 % of control | [4] 98 % of control | [5] 98 % of control | [6] 98 % of control

Brc1n[nH]c(Br)n1
inactive: [1] 93 % of control | [3] 93 % of control | [5] 91 % of control

C1CCC2C(C1)CCCC2C1C2C3CCCCC3CCC2C2CCC3CCCCC3C21 (centres undefined)
inactive: [2] 91 % of control | [4] 91 % of control | [6] 88 % of control

O=S(=O)(c1ccccc1)n1ccc2ccccc21
inactive: [10] 93 % of control | [11] 97 % of control | [12] 97 % of control

Cn1cc([N+](=O)[O-])ccc1=O
inactive: [13] 110 % of control | [14] 116 % of control | [15] 121 % of control

O=C(N/N=C\c1ccccc1Cl)c1ccco1
inactive: dose: 100.0 mg/kg/injection, schedule: Q01DX001 (ip), vehicle: carboxymethylcellulose (CMC) 92 % of control | dose: 200.0 mg/kg/injection, schedule: Q01DX001 (ip), vehicle: carboxymethylcellulose (CMC) 86 % of control

CCN(C1CCCCC1)C1CCCCC1
inactive: dose: 25.0 mg/kg/injection, schedule: Q01DX009 (ip), vehicle: saline 100 % of control | dose: 50.0 mg/kg/injection, schedule: Q01DX009 (ip), vehicle: saline 98 % of control | dose: 100.0 mg/kg/injection, schedule: Q01DX009 (ip), vehicle: saline 107 % of control

CC(CN=[N+]=[N-])OC(=O)C(F)(F)F (centres undefined)
inactive: dose: 37.5 mg/kg/injection, schedule: Q04DX003 (ip), vehicle: saline 104 % of control | dose: 75.0 mg/kg/injection, schedule: Q04DX003 (ip), vehicle: saline 102 % of control | dose: 150.0 mg/kg/injection, schedule: Q04DX003 (ip), vehicle: saline 106 % of control

O=C1NC(=O)/C(=C/c2ccccc2)N1
inactive: [16] 96 % of control | [13] 104 % of control | [17] 98 % of control | [14] 96 % of control | [18] 102 % of control | [15] 96 % of control

Cc1c(C)c2c(c(C)c1O)CCC(C)(CCCC(C)CCCC(C)CCCC(C)C)O2 (centres undefined)
inactive: dose: 31.2 mg/kg/injection, schedule: Q01DX009 (ip), vehicle: carboxymethylcellulose (CMC) 107 % of control | dose: 62.5 mg/kg/injection, schedule: Q01DX009 (ip), vehicle: carboxymethylcellulose (CMC) 101 % of control | [2] 91 % of control | dose: 125.0 mg/kg/injection, schedule: Q01DX009 (ip), vehicle: carboxymethylcellulose (CMC) 100 % of control | dose: 202.0 mg/kg/injection, schedule: Q04DX003 (ip), vehicle: saline with Tween-80 91 % of control | dose: 250.0 mg/kg/injection, schedule: Q01DX009 (ip), vehicle: carboxymethylcellulose (CMC) 100 % of control | [6] 93 % of control

C=CCNC(=S)Nc1cccc(O)c1
inactive: [16] 95 % of control | [17] 104 % of control | [18] 107 % of control

O=c1c[n+](Cc2ccc(Cl)cc2)[nH]o1
inactive: dose: 100.0 mg/kg/injection, schedule: Q01DX Z (ip), vehicle: saline 100 % of control | dose: 200.0 mg/kg/injection, schedule: Q01DX Z (ip), vehicle: saline 100 % of control

Cc1cc(C)c(NC(=S)NC(=O)/C=C/c2ccccc2)c(C)c1
inactive: dose: 100.0 mg/kg/injection, schedule: Q01DX001 (ip), vehicle: saline with Tween-80 100 % of control | [1] 97 % of control and 89 % of control | [10] 101 % of control | [2] 92 % of control | dose: 200.0 mg/kg/injection, schedule: Q01DX001 (ip), vehicle: saline with Tween-80 92 % of control | [3] 101 % of control and 107 % of control | [11] 104 % of control | [4] 92 % of control | dose: 400.0 mg/kg/injection, schedule: Q01DX001 (ip), vehicle: saline with Tween-80 97 % of control | [5] 92 % of control and 96 % of control | [12] 87 % of control | [6] 91 % of control

O=C(C=C(C(F)(F)F)C(F)(F)F)c1ccco1
inactive: dose: 12.5 mg/kg/injection, schedule: Q01DX009 (ip), vehicle: saline with Tween-80 100 % of control | dose: 25.0 mg/kg/injection, schedule: Q01DX009 (ip), vehicle: saline with Tween-80 104 % of control

Cc1ccc(S(=O)(=O)N2CC3CC2CN3Cc2ccccc2)cc1 (centres undefined)
inactive: [16] 97 % of control | [13] 98 % of control | [17] 97 % of control | [14] 101 % of control | [18] 92 % of control | [15] 106 % of control

COC1OC2COC(c3ccccc3)OC2C(N=[N+]=[N-])C1O (centres undefined)
inactive: dose: 100.0 mg/kg/injection, schedule: Q01DX001 (ip), vehicle: gum acacia 100 % of control | dose: 200.0 mg/kg/injection, schedule: Q01DX001 (ip), vehicle: gum acacia 97 % of control | dose: 400.0 mg/kg/injection, schedule: Q01DX001 (ip), vehicle: gum acacia 92 % of control

NC(=NCc1ccccc1)c1ncn(C2CCCC2)c1N
inactive: dose: 12.5 mg/kg/injection, schedule: Q01DX001 (ip), vehicle: Klucel (hydroxypropylcellulose) (HPC) 103 % of control | dose: 25.0 mg/kg/injection, schedule: Q01DX001 (ip), vehicle: Klucel (hydroxypropylcellulose) (HPC) 102 % of control | dose: 50.0 mg/kg/injection, schedule: Q01DX001 (ip), vehicle: Klucel (hydroxypropylcellulose) (HPC) 96 % of control

CCOC(=O)c1[nH]c(C)c(C(=O)OC(C)(C)C)c1C
inactive: [7] 95 % of control | [13] 95 % of control | [8] 93 % of control | [14] 106 % of control | [9] 92 % of control | [15] 103 % of control

Cc1ccc(C(=O)C=Nc2ccc(S(N)(=O)=O)cc2)cc1
inactive: dose: 12.5 mg/kg/injection, schedule: Q04DX002 (ip), vehicle: Klucel (hydroxypropylcellulose) (HPC) 94 % of control | dose: 25.0 mg/kg/injection, schedule: Q04DX002 (ip), vehicle: Klucel (hydroxypropylcellulose) (HPC) 115 % of control | dose: 50.0 mg/kg/injection, schedule: Q04DX002 (ip), vehicle: Klucel (hydroxypropylcellulose) (HPC) 97 % of control

CCCCC(CCCC)=NNc1ccc([N+](=O)[O-])cc1[N+](=O)[O-]
inactive: dose: 100.0 mg/kg/injection, schedule: Q01DX001 (ip), vehicle: saline 96 % of control | dose: 200.0 mg/kg/injection, schedule: Q01DX001 (ip), vehicle: saline 102 % of control | dose: 400.0 mg/kg/injection, schedule: Q01DX001 (ip), vehicle: saline 107 % of control

CCOC(=O)c1cnc(SC)nc1Nc1ccc(Cl)cc1Cl
inactive: [16] 103 % of control | [17] 97 % of control | [18] 92 % of control

CCOC(=O)c1cnc(SC)nc1NC
inactive: [13] 97 % of control | [14] 99 % of control | [15] 111 % of control
